Laboratory results: publication PMC5218480 (PLoS ONE, 2017)

System: MV-4-11 cells
Assay: Gene expression microarray analysis (Affymetrix PrimeView) and GSEA
Assay type: cell-based, human
Design: RFU PODN (11730768_x_at) / Fold change /veh PODN (11730768_x_at) / RFU LINC00158 (11744669_a_at) / Fold change /veh LINC00158 (11744669_a_at) / RFU DUSP10 (11751237_a_at) / Fold change /veh DUSP10 (11751237_a_at) / RFU ID3 (11757404_x_at) / Fold change /veh ID3 (11757404_x_at) / RFU PLEKHG5 (11737974_s_at) / Fold change /veh PLEKHG5 (11737974_s_at) / RFU LRRC4B (11730491_at) / Fold change /veh LRRC4B (11730491_at) / RFU GIMAP4 (11747438_a_at) / Fold change /veh GIMAP4 (11747438_a_at) / RFU KRT8 (11758183_x_at) / Fold change /veh KRT8 (11758183_x_at) / RFU CNN1 (11734310_a_at) / Fold change /veh CNN1 (11734310_a_at) / RFU VPS37D (11726825_at) / Fold change /veh VPS37D (11726825_at) / RFU C10orf10 (11716522_x_at) / Fold change /veh C10orf10 (11716522_x_at) / RFU KIR2DL2 /// KIR2DL4 /// KIR2DL5A /// KIR2DL5B /// KIR2DS1 /// KIR2DS2 /// KIR2DS3 /// KIR2DS4 /// KIR3DL3 /// KIR3DL3 /// KIR3DS1 (11738374_at) / Fold change /veh KIR2DL2 /// KIR2DL4 /// KIR2DL5A /// KIR2DL5B /// KIR2DS1 /// KIR2DS2 /// KIR2DS3 /// KIR2DS4 /// KIR3DL3 /// KIR3DL3 /// KIR3DS1 (11738374_at) / RFU C1QL1 (11718748_at) / Fold change /veh C1QL1 (11718748_at) / RFU TMPRSS4 (11747572_a_at) / Fold change /veh TMPRSS4 (11747572_a_at) / RFU HAMP (11756126_x_at) / Fold change /veh HAMP (11756126_x_at) / RFU RNFT2 (11725882_a_at) / Fold change /veh RNFT2 (11725882_a_at) / RFU NR4A2 (11747474_a_at) / Fold change /veh NR4A2 (11747474_a_at) / RFU ABCC12 (11746883_a_at) / Fold change /veh ABCC12 (11746883_a_at) / RFU TMEM136 (11760407_x_at) / Fold change /veh TMEM136 (11760407_x_at) / RFU CLDN22 /// WWC2 (11732394_at) / Fold change /veh CLDN22 /// WWC2 (11732394_at) / RFU HLA-DPB1 (11760878_x_at) / Fold change /veh HLA-DPB1 (11760878_x_at) / RFU SPINT1 (11716480_a_at) / Fold change /veh SPINT1 (11716480_a_at) / RFU GAP43 (11754022_s_at) / Fold change /veh GAP43 (11754022_s_at) / RFU A4GNT (11735810_at) / Fold change /veh A4GNT (11735810_at) / RFU PRB3 (11715151_x_at) / Fold change /veh PRB3 (11715151_x_at) / RFU TUBB4B (11761932_at) / Fold change /veh TUBB4B (11761932_at) / RFU CAPN14 (11732068_a_at) / Fold change /veh CAPN14 (11732068_a_at) / RFU TMCC2 (11721928_a_at) / Fold change /veh TMCC2 (11721928_a_at) / RFU IRGQ (11745062_a_at) / Fold change /veh IRGQ (11745062_a_at) / RFU FAM174B (11720279_a_at) / Fold change /veh FAM174B (11720279_a_at) / RFU TMPRSS4 (11748680_a_at) / Fold change /veh TMPRSS4 (11748680_a_at) / RFU FAM212B (11763350_a_at) / Fold change /veh FAM212B (11763350_a_at) / RFU PLEKHG5 (11743358_a_at) / Fold change /veh PLEKHG5 (11743358_a_at) / RFU ZSCAN30 (11745921_a_at) / Fold change /veh ZSCAN30 (11745921_a_at) / RFU CMKLR1 (11741424_a_at) / Fold change /veh CMKLR1 (11741424_a_at) / RFU LOC101060620 /// MAPK8IP1 (11723275_at) / Fold change /veh LOC101060620 /// MAPK8IP1 (11723275_at) / RFU SPTSSB (11747773_x_at) / Fold change /veh SPTSSB (11747773_x_at) / RFU PRSS12 (11739890_at) / Fold change /veh PRSS12 (11739890_at) / RFU BIN1 (11741810_x_at) / Fold change /veh BIN1 (11741810_x_at) / RFU WNT11 (11732464_a_at) / Fold change /veh WNT11 (11732464_a_at) / RFU C10orf10 (11716521_a_at) / Fold change /veh C10orf10 (11716521_a_at) / RFU C5orf56 (11738089_at) / Fold change /veh C5orf56 (11738089_at) / RFU CYB561 (11721691_x_at) / Fold change /veh CYB561 (11721691_x_at) / RFU ANKRD19P (11752326_a_at) / Fold change /veh ANKRD19P (11752326_a_at) / RFU OR2T12 /// OR2T33 /// OR2T8 (11738714_s_at) / Fold change /veh OR2T12 /// OR2T33 /// OR2T8 (11738714_s_at) / RFU VCAN (11748164_a_at) / Fold change /veh VCAN (11748164_a_at) / RFU JSRP1 (11732532_at) / Fold change /veh JSRP1 (11732532_at) / RFU KRTAP10-11 (11738290_x_at) / Fold change /veh KRTAP10-11 (11738290_x_at) / RFU MYO3A (11730013_a_at) / Fold change /veh MYO3A (11730013_a_at) / RFU EBF3 (11725865_a_at) / Fold change /veh EBF3 (11725865_a_at) / RFU CAMK2N1 (11719241_x_at) / Fold change /veh CAMK2N1 (11719241_x_at) / RFU C5orf56 (11738088_a_at) / Fold change /veh C5orf56 (11738088_a_at) / RFU OLFML3 (11715873_a_at) / Fold change /veh OLFML3 (11715873_a_at) / RFU LOC100653217 /// NTM (11731650_a_at) / Fold change /veh LOC100653217 /// NTM (11731650_a_at) / RFU MAPK11 (11762145_a_at) / Fold change /veh MAPK11 (11762145_a_at) / RFU FIZ1 (11724087_x_at) / Fold change /veh FIZ1 (11724087_x_at) / RFU OASL (11726364_x_at) / Fold change /veh OASL (11726364_x_at) / RFU SOX15 (11748057_x_at) / Fold change /veh SOX15 (11748057_x_at) / RFU CD79A (11719716_a_at) / Fold change /veh CD79A (11719716_a_at) / RFU HIST1H1D (11736915_at) / Fold change /veh HIST1H1D (11736915_at) / RFU CASKIN2 (11723855_a_at) / Fold change /veh CASKIN2 (11723855_a_at) / RFU LOC730098 (11760151_x_at) / Fold change /veh LOC730098 (11760151_x_at) / RFU OR4N2 (11742367_at) / Fold change /veh OR4N2 (11742367_at) / RFU PRRT2 (11749266_a_at) / Fold change /veh PRRT2 (11749266_a_at) / RFU SNX32 (11753110_a_at) / Fold change /veh SNX32 (11753110_a_at) / RFU CDHR5 (11726645_a_at) / Fold change /veh CDHR5 (11726645_a_at) / RFU RCAN1 (11760418_a_at) / Fold change /veh RCAN1 (11760418_a_at) / RFU FAM167A (11723789_a_at) / Fold change /veh FAM167A (11723789_a_at) / RFU FAM26E (11764081_at) / Fold change /veh FAM26E (11764081_at) / RFU ISYNA1 (11749810_s_at) / Fold change /veh ISYNA1 (11749810_s_at) / RFU ACY1 (11761880_at) / Fold change /veh ACY1 (11761880_at) / RFU 11764098_at / Fold change /veh 11764098_at / RFU SAMD14 (11745864_x_at) / Fold change /veh SAMD14 (11745864_x_at) / RFU NPB (11741838_a_at) / Fold change /veh NPB (11741838_a_at) / RFU TMPRSS6 (11731388_a_at) / Fold change /veh TMPRSS6 (11731388_a_at) / RFU KRTAP10-2 (11738614_at) / Fold change /veh KRTAP10-2 (11738614_at) / RFU ARHGAP8 /// PRR5-ARHGAP8 (11727945_x_at) / Fold change /veh ARHGAP8 /// PRR5-ARHGAP8 (11727945_x_at) / RFU KRTAP5-7 /// NADSYN1 (11734609_at) / Fold change /veh KRTAP5-7 /// NADSYN1 (11734609_at) / RFU RASL12 (11751679_a_at) / Fold change /veh RASL12 (11751679_a_at) / RFU CDKN2B (11736163_a_at) / Fold change /veh CDKN2B (11736163_a_at) / RFU PRF1 (11729649_at) / Fold change /veh PRF1 (11729649_at) / RFU, ZNF638 /// ZNF638-IT1 / Fold change vs veh, ZNF638 /// ZNF638-IT1 / RFU, PANK3 / Fold change vs veh, PANK3 / RFU, SH3YL1 / Fold change vs veh, SH3YL1 / RFU, ZEB2 / Fold change vs veh, ZEB2 / RFU, NRIP1 / Fold change vs veh, NRIP1 / RFU, PTTG1IP / Fold change vs veh, PTTG1IP / RFU, CAPN2 / Fold change vs veh, CAPN2 / RFU, MED14 / Fold change vs veh, MED14 / RFU, SNORA58 / Fold change vs veh, SNORA58 / RFU, C1orf63 / Fold change vs veh, C1orf63 / RFU, LRRFIP1 / Fold change vs veh, LRRFIP1 / RFU, NDUFAF7 / Fold change vs veh, NDUFAF7 / RFU, SLC12A2 / Fold change vs veh, SLC12A2 / RFU, IBTK / Fold change vs veh, IBTK / RFU, ESF1 / Fold change vs veh, ESF1 / Fold change vs veh, TMEM50B / RFU, TAOK1 / Fold change vs veh, TAOK1 / RFU, ACBD3 / Fold change vs veh, ACBD3 / RFU, TMA16 / Fold change vs veh, TMA16 / RFU, RWDD3 / Fold change vs veh, RWDD3 / RFU, BCAT1 / Fold change vs veh, BCAT1 / RFU, EDEM3 / Fold change vs veh, EDEM3 / RFU, TMEM33 / Fold change vs veh, TMEM33 / RFU, WDR75 / Fold change vs veh, WDR75 / RFU, AHCTF1 / Fold change vs veh, AHCTF1 / RFU, TFRC / Fold change vs veh, TFRC / RFU, ZDHHC17 / Fold change vs veh, ZDHHC17 / RFU, NOM1 / Fold change vs veh, NOM1 / RFU, ARL8B / Fold change vs veh, ARL8B / RFU, ZBTB11 / Fold change vs veh, ZBTB11 / RFU, TAMM41 / Fold change vs veh, TAMM41 / RFU, KIAA1704 /// LOC100996395 / Fold change vs veh, KIAA1704 /// LOC100996395 / RFU, ING1 / Fold change vs veh, ING1 / RFU, TRMT61B / Fold change vs veh, TRMT61B / RFU, FUBP3 / Fold change vs veh, FUBP3 / RFU, TP53 / Fold change vs veh, TP53 / RFU, TNKS2 / Fold change vs veh, TNKS2 / RFU, ZFP14 / Fold change vs veh, ZFP14 / RFU, ACTR2 / Fold change vs veh, ACTR2 / RFU, PPP3R1 / Fold change vs veh, PPP3R1 / RFU, PIK3R1 / Fold change vs veh, PIK3R1 / RFU, HNRNPA1 / Fold change vs veh, HNRNPA1 / RFU, RNF170 / Fold change vs veh, RNF170 / RFU, ZNF28 / Fold change vs veh, ZNF28 / RFU, RNGTT / Fold change vs veh, RNGTT / RFU, OGT / Fold change vs veh, OGT / RFU, BRD1 / Fold change vs veh, BRD1 / RFU, MARS / Fold change vs veh, MARS / RFU, ZNF655 / Fold change vs veh, ZNF655 / RFU, FAHD1 / Fold change vs veh, FAHD1 / RFU, BDP1 / Fold change vs veh, BDP1 / RFU, LRRCC1 / Fold change vs veh, LRRCC1 / RFU, ARID1A / Fold change vs veh, ARID1A / RFU, ZNF146 / Fold change vs veh, ZNF146 / RFU, ZNF330 / Fold change vs veh, ZNF330 / RFU, GPN3 / Fold change vs veh, GPN3 / RFU, C9orf123 / Fold change vs veh, C9orf123 / RFU, N4BP2L2 / Fold change vs veh, N4BP2L2 / RFU, ARFIP1 / Fold change vs veh, ARFIP1 / RFU, FAM179B / Fold change vs veh, FAM179B / RFU, BCL10 / Fold change vs veh, BCL10 / RFU, UHRF1BP1L / Fold change vs veh, UHRF1BP1L / RFU, BET1 / Fold change vs veh, BET1 / RFU, CNOT2 / Fold change vs veh, CNOT2 / RFU, ZNF268 / Fold change vs veh, ZNF268 / Fold change vs veh, ZNF507 / RFU, DGCR2 / Fold change vs veh, DGCR2 / RFU, WDSUB1 / Fold change vs veh, WDSUB1 / Fold change vs veh, HSP90B1 /// MIR3652 / RFU, ADSS / Fold change vs veh, ADSS / RFU, GK / Fold change vs veh, GK / RFU, ZNF148 / Fold change vs veh, ZNF148 / RFU, TAF9 / Fold change vs veh, TAF9 / RFU, SLC1A5 / Fold change vs veh, SLC1A5 / RFU, SLMO2 / Fold change vs veh, SLMO2 / RFU, ABCC4 / Fold change vs veh, ABCC4 / RFU, LOC101060439 /// RAP1B / Fold change vs veh, LOC101060439 /// RAP1B / RFU, RFX7 / Fold change vs veh, RFX7 / RFU, GTPBP10 / Fold change vs veh, GTPBP10 / RFU, CNEP1R1 / Fold change vs veh, CNEP1R1 / RFU, BIVM-ERCC5 /// ERCC5 / Fold change vs veh, BIVM-ERCC5 /// ERCC5 / RFU, ILF3 / Fold change vs veh, ILF3 / RFU 11762660_at / Fold change /veh 11762660_at / RFU VCAN (11757783_s_at) / Fold change /veh VCAN (11757783_s_at) / RFU DDX43 (11728927_at) / Fold change /veh DDX43 (11728927_at) / RFU KRT8 (11758188_x_at) / Fold change /veh KRT8 (11758188_x_at) / RFU NKD1 (11759106_at) / Fold change /veh NKD1 (11759106_at) / RFU SRD5A1 (11742802_a_at) / Fold change /veh SRD5A1 (11742802_a_at) / RFU TPSAB1 /// TPSB2 (11721975_s_at) / Fold change /veh TPSAB1 /// TPSB2 (11721975_s_at) / RFU GSTM3 (11746129_a_at) / Fold change /veh GSTM3 (11746129_a_at) / RFU IL23R (11737362_x_at) / Fold change /veh IL23R (11737362_x_at) / RFU TMEM51 (11727254_a_at) / Fold change /veh TMEM51 (11727254_a_at) / RFU PIWIL2 (11732686_x_at) / Fold change /veh PIWIL2 (11732686_x_at) / RFU ORM1 (11744905_x_at) / Fold change /veh ORM1 (11744905_x_at) / RFU CCDC152 (11743942_at) / Fold change /veh CCDC152 (11743942_at) / RFU ECM1 (11717891_a_at) / Fold change /veh ECM1 (11717891_a_at) / RFU IL23R (11748794_a_at) / Fold change /veh IL23R (11748794_a_at) / RFU TNFAIP8L3 (11732012_x_at) / Fold change /veh TNFAIP8L3 (11732012_x_at) / RFU MBOAT4 (11741988_at) / Fold change /veh MBOAT4 (11741988_at) / RFU 11764193_at / Fold change /veh 11764193_at / RFU TMEM53 (11763286_at) / Fold change /veh TMEM53 (11763286_at) / RFU MAGEB2 (11727129_at) / Fold change /veh MAGEB2 (11727129_at) / RFU TMEM200A (11744735_a_at) / Fold change /veh TMEM200A (11744735_a_at) / RFU CCDC152 (11751479_a_at) / Fold change /veh CCDC152 (11751479_a_at) / RFU FAM211A (11726209_a_at) / Fold change /veh FAM211A (11726209_a_at) / RFU RGS16 (11746705_a_at) / Fold change /veh RGS16 (11746705_a_at) / RFU VCAN (11755009_s_at) / Fold change /veh VCAN (11755009_s_at) / RFU RHOB (11743442_s_at) / Fold change /veh RHOB (11743442_s_at) / RFU RGS16 (11720943_a_at) / Fold change /veh RGS16 (11720943_a_at) / RFU RGS16 (11720944_at) / Fold change /veh RGS16 (11720944_at) / RFU, VPS4B / Fold change vs veh, VPS4B / RFU, CREB1 / Fold change vs veh, CREB1 / RFU, DNAJC13 / Fold change vs veh, DNAJC13 / RFU, GNAQ / Fold change vs veh, GNAQ / RFU, CDK5R1 / Fold change vs veh, CDK5R1 / RFU, ZRANB3 / Fold change vs veh, ZRANB3 / RFU, CUL4A / Fold change vs veh, CUL4A / RFU, CCNY / Fold change vs veh, CCNY / RFU, UFL1 / Fold change vs veh, UFL1 / RFU, COG3 / Fold change vs veh, COG3 / RFU, DIAPH2 / Fold change vs veh, DIAPH2 / RFU, SKA2 / Fold change vs veh, SKA2 / RFU, AFF3 / Fold change vs veh, AFF3 / RFU, LMF1 / Fold change vs veh, LMF1 / RFU, IPO11 / Fold change vs veh, IPO11 / RFU, DFFB / Fold change vs veh, DFFB / RFU, FOXP1 / Fold change vs veh, FOXP1 / RFU, CARD8 / Fold change vs veh, CARD8 / RFU, STRN3 / Fold change vs veh, STRN3 / RFU, ADK / Fold change vs veh, ADK / RFU, RASSF2 / Fold change vs veh, RASSF2 / RFU, WIPF1 / Fold change vs veh, WIPF1 / RFU, LARP1B / Fold change vs veh, LARP1B / RFU, RASA1 / Fold change vs veh, RASA1 / RFU, RB1 / Fold change vs veh, RB1 / RFU, PPFIA1 / Fold change vs veh, PPFIA1 / RFU, MAT2A / Fold change vs veh, MAT2A / RFU, CCT5 / Fold change vs veh, CCT5 / RFU, WDR92 / Fold change vs veh, WDR92 / RFU, CUX1 / Fold change vs veh, CUX1 / RFU, TTC7A / Fold change vs veh, TTC7A / RFU, TMEM135 / Fold change vs veh, TMEM135 / RFU, DEPTOR / Fold change vs veh, DEPTOR / RFU, CPM / Fold change vs veh, CPM / RFU, DNAJB6 / Fold change vs veh, DNAJB6 / RFU, CACNA2D3 / Fold change vs veh, CACNA2D3 / RFU, DTX4 / Fold change vs veh, DTX4 / RFU, TFCP2 / Fold change vs veh, TFCP2 / RFU, GMCL1 /// GMCL1P1 / Fold change vs veh, GMCL1 /// GMCL1P1 / RFU, AEBP2 / Fold change vs veh, AEBP2 / RFU, SNHG1 /// SNORD22 /// SNORD25 /// SNORD26 /// SNORD27 /// SNORD28 /// SNORD29 /// SNORD31 / Fold change vs veh, SNHG1 /// SNORD22 /// SNORD25 /// SNORD26 /// SNORD27 /// SNORD28 /// SNORD29 /// SNORD31 / Fold change (Aza/veh), C12orf56 (ProbeSet 11735607_a_at) / Fold change (ACY-1035/veh), C12orf56 (ProbeSet 11735607_a_at) / Fold change (Aza/veh), FGFR1OP (ProbeSet 11751329_s_at) / Fold change (ACY-1035/veh), FGFR1OP (ProbeSet 11751329_s_at) / Fold change (Aza/veh), VPS36 (ProbeSet 11739960_a_at) / Fold change (ACY-1035/veh), VPS36 (ProbeSet 11739960_a_at) / RFU SYPL1 (11715823_x_at) / Fold change /veh SYPL1 (11715823_x_at) / RFU IGFBP7 (11715501_s_at) / Fold change /veh IGFBP7 (11715501_s_at) / RFU REEP3 (11722064_at) / Fold change /veh REEP3 (11722064_at) / RFU IGLL1 (11728026_x_at) / Fold change /veh IGLL1 (11728026_x_at): dose or concentration left out as unconfirmed
Conditions: MV-4-11 cells, 48 hours

Nc1ccc(-c2cccs2)cc1NC(=O)c1ccc2c(c1)cc(C1CC1)n2CCN1CCOCC1 [ACY-1035] was tested, and the “Fold change /veh MAPK11 (11762145_a_at)” value was 0.89.
